Literature values, collected in US12436146B2, “Cell-based assay for quantifying the potency and efficacy of cannabinoids and/or terpenoids, and methods of use thereof” (priority 2017, dated 2025).

Experiments:
[1] = target: T1, CB1 (Homo sapiens, UniProt P21554); settings: read-out: CB1 affinity (Ki)
[2] = target: T2, CB2 (Homo sapiens, UniProt P34972); settings: read-out: CB2 affinity (Ki)
[3] = target: T2, CB2
[4] = target: T1, CB1

T2 sequence (P34972 whole entry): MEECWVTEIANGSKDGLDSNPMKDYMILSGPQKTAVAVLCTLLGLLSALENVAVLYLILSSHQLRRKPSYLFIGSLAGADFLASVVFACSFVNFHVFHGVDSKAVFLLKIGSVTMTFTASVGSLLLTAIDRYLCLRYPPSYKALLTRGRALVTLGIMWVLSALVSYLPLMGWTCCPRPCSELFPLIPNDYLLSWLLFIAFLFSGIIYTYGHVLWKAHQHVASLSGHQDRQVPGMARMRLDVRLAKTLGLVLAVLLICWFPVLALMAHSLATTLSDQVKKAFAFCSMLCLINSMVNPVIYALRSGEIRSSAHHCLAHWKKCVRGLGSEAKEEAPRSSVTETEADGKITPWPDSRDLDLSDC
T1 sequence (P21554 whole entry): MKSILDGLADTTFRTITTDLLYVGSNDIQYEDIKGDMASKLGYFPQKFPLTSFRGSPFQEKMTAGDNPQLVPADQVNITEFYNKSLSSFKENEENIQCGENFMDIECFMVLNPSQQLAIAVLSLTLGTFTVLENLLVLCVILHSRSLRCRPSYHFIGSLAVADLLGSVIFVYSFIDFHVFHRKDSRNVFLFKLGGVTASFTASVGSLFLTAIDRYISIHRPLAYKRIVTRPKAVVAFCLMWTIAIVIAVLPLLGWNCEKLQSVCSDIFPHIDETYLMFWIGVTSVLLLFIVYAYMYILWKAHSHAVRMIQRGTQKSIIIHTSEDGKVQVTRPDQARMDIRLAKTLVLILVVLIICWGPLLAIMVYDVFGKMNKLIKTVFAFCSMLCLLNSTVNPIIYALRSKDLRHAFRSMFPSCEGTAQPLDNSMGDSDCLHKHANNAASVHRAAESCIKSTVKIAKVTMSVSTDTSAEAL

SMILES	Ki [1] [nM]	Ki [2] [nM]	Efficacy towards CB2 [3]	Efficacy towards CB1 [4]
CCCCCn1cc(C(=O)c2cccc3ccccc23)c2ccccc21 [JWH-018]	9 ± 5	2.94 ± 2.65	Full agonist	Full agonist
COc1ccc(/C=C/c2cc(OC)cc(=O)o2)cc1 [Yangonin]		> 10000		
CCCCC/C=C\C/C=C\C/C=C\C/C=C\CCCCOC(CO)CO [2-Arachidonyl glyceryl ether]	21	480	Full agonist	Full agonist
N#CCCCCn1cc(C(=O)c2cccc3ccccc23)c2ccccc21 [AM-2232]	0.28	1.48	Agonist	Agonist
CCCCCn1c(C)c(C(=O)c2cccc3ccccc23)c2ccccc21 [JWH-007]	9	2.94	Agonist	Agonist
Cc1c(C(=O)c2cccc3ccccc23)c2ccc([N+](=O)[O-])cc2n1CC1CCCCN1C (stereo not shown) [AM-1221]	52.3	0.28	Agonist	Agonist
O=C(O[C@@H]1Cc2c(O)cc(O)cc2O[C@@H]1c1cc(O)c(O)c(O)c1)c1cc(O)c(O)c(O)c1 [EGCG]	33600	> 50000		Agonist
CCCCC/C=C\C/C=C\C/C=C\C/C=C\CCCC(=O)OC(CO)CO [2-Arachidonoylglycerol]				Full agonist
O=C(c1cccc2ccccc12)c1cn(CCCCCF)c2cc([N+](=O)[O-])ccc12 [AM-1235]	1.5	20.4	Agonist	Agonist
CCCCCn1cc(C(=O)C2C(C)(C)C2(C)C)c2ccccc21 [UR-144]	150	1.8	Full agonist	Full agonist
CCCCC/C=C\C/C=C\C/C=C\C/C=C\CCCC(=O)NCCc1ccc(O)c(O)c1 [N-Arachidonoyl dopamine]				Agonist
